The values below come from US10604509B2, “Nrf2 regulators” (GlaxoSmithKline Intellectual Property Development Limited, priority 2015, dated 2020).

Where a name gives a salt, the structure may show the parent alone.

Usually EC50 stands for the concentration that produces a half-maximal response.

In the first experiment the test system is NQO1 specific enzyme activity in BEAS-2B cells. The experiment can be described thus: BEAS-2B NQO1 MTT assay. It is filed as cell-based. To be noted: BEAS-2B cells, 48 hours with compound, MTT readout; read-out: EC50 of NQO1 specific activity induction. An outline of the steps: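 BEAS-2B cells treated with compound 48 h at 37° C, 5% CO2, then lysed; NQO1 activity in lysate measured kinetically by MTT cocktail at Absorbance 570 nm over 30 min. EC50 for induction from Delta OD/min versus log concentration, 3-parameter fit; Cell Titer Glo run on lysate aliquot.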
Consider `CC[C@@H]1CN(Cc2cc([C@H](c3ccc4c(nnn4CC)c3C)[C@H](C)C(=O)O)ccc2C)Cc2ccccc2O1` [Example 101, Ammonium (2S,3R)-3-(3-(((R)-2-ethyl-2,3-dihydrobenzo[f][1,4]oxazepin-4(5H)-yl)methyl)-4-methylphenyl)-3-(1-ethyl-4-methyl-1H-benzo[d][1,2,3]triazol-5-yl)-2-methylpropanate], for which the EC50 is below 1 nM.

Staying with this experiment, now noted: Homo sapiens, BEAS-2B, 48 h, BEAS-2B cells, 48 hours with compound, MTT readout; read-out: EC50 of NQO1 specific activity induction.
`Cc1ccc(C(CC(=O)O)c2ccc3c(nnn3C)c2C)cc1CN1Cc2ccccc2OC(C)(C)C1` (stereo not drawn) [Example 89, 3-(1,4-Diemthyl-1H-benzo[d][1,2,3]triazol-5-yl)-3-(3-((2,2-dimethyl-2,3-dihydrobenzo[f][1,4]oxazepin-4(5H)-yl)methyl)-4-methylphenyl)propanoic acid]: the EC50 fell in the range of 10 to 100 nM.
For the compound `CC[C@@H]1CN(Cc2cc(C(CC(=O)O)c3ccc4c(nnn4C)c3C)ccc2C)Cc2ccncc2O1` (stereo partly drawn) [Example 90, 3-(1,4-Dimethyl-1H-benzo[d][1,2,3]triazol-5-yl)-3-(3-(((R)-2-ethyl-2,3-dihydropyrido[4,3-f][1,4]oxazepin-4(5H)-yl)methyl)-4-methylphenyl)propanoic acid], the EC50 was in the range of 10 to 100 nM.
Still for that read-out and setting: the value for `CC[C@@H]1CN(Cc2cc(C(CC(=O)O)c3ccc4c(c3)nnn4C)ccc2C)Cc2ccccc2O1` (stereo partly drawn) [Example 91, 3-(3-(((R)-2-Ethyl-2,3-dihydrobenzo[f][1,4]oxazepin-4(5H)-yl)methyl)-4-methylphenyl)-3-(1-methyl-1H-benzo[d][1,2,3]triazol-5-yl)propanoic acid] was 100 to 1000 nM; that for `Cc1ccc(C(CC(=O)O)c2ccc3c(nnn3C)c2C)cc1CN1CCCn2cncc2C1` (stereo not drawn) [Example 92, 3-(3-((6,7-Dihydro-5H-imidazo[1,5-a][1,4]diazepin-8(9H)-yl)methyl)-4-methylphenyl)-3-(1,4-dimethyl-1H-benzo[d][1,2,3]triazol-5-yl)propanoic acid, Sodium salt] was 1000 to 10000 nM.
Still for that read-out and setting: the value for `Cc1ccc(C(CC(=O)O)c2ccc3c(nnn3C)c2C)cc1CN1Cc2ccc(Br)cc2O[C@@H](C)C1` (stereo partly drawn) [Example 93, 3-(3-(((S)-8-bromo-2-methyl-2,3-dihydrobenzo[f][1,4]oxazepin-4(5H)-yl)methyl)-4-methylphenyl)-3-(1,4-dimethyl-1H-benzo[d][1,2,3]triazol-5-yl)propanoic Acid, Formic Acid Salt] was 1 to 10 nM; that for `Cc1ccc(C(CC(=O)O)c2ccc3c(nnn3C)c2C)cc1CN1Cc2ccccc2O[C@H](C)C1` (stereo partly drawn) [Example 94, 3-(1,4-Dimethyl-1H-benzo[d][1,2,3]triazol-5-yl)-3-(4-methyl-3-(((R)-2-methyl-2,3-dihydrobenzo[f][1,4]oxazepin-4(5H)-yl)methyl)phenyl)propanoic Acid, Formic Acid Salt] was 1 to 10 nM.
`Cc1c(C(CC(=O)O)c2ccc(F)c(CN3Cc4ccccc4O[C@@H](C)C3)c2)ccc2c1nnn2C` (stereo partly drawn) [Example 95, 3-(1,4-Dimethyl-1H-benzo[d][1,2,3]triazol-5-yl)-3-(4-fluoro-3-(((S)-2-methyl-2,3-dihydrobenzo[f][1,4]oxazepin-4(5H)-yl)methyl)phenyl)propanoic Acid, Formic Acid Salt]: the EC50 was 100 to 1000 nM.
With `Cc1ccc(C(CC(=O)O)c2ccc3c(nnn3C)c2C)cc1CN1Cc2cccnc2OC(C)(C)C1` (stereo not drawn) [Example 96, 3-(1,4-Dimethyl-1H-benzo[d][1,2,3]triazol-5-yl)-3-(3-((2,2-dimethyl-2,3-dihydropyrido[3,2-f][1,4]oxazepin-4(5H)-yl)methyl)-4-methylphenyl)propanoic Acid], the EC50 fell in the range of 100 to 1000 nM.
Same read-out and setting: the value for `CCn1nnc2c(C)c(C(CC(=O)O)c3ccc(C)c(CN4Cc5ccccc5O[C@@H](C)C4)c3)ccc21` (stereo partly drawn) [Example 97, 3-(1-Ethyl-4-methyl-1H-benzo[d][1,2,3]triazol-5-yl)-3-(4-methyl-3-(((S)-2-methyl-2,3-dihydrobenzo[f][1,4]oxazepin-4(5H)-yl)methyl)phenyl)propanoic Acid, Formic Acid Salt] was 100 to 1000 nM.
Still for that read-out and setting: the value for `Cc1ccc(C(CC(=O)O)c2ccc3c(nnn3C)c2C)cc1CN1Cc2ccccc2O[C@@H](C)C1` (stereo partly drawn) [Example 98, 3-(1,4-Dimethyl-1H-benzo[d][1,2,3]triazol-5-yl)-3-(4-methyl-3-(((S)-2-methyl-2,3-dihydrobenzo[f][1,4]oxazepin-4(5H)-yl)methyl)phenyl)propanoic Acid, Formic Acid Salt] was 100 to 1000 nM.
For `Cc1c(C(CC(=O)O)c2ccc(Cl)c(CN3CCOc4ccccc4C3)c2)ccc2c1nnn2C` (stereo not drawn) [Example 99, 3-(4-Chloro-3-((2,3-dihydrobenzo[f][1,4]oxazepin-4(5H)-yl)methyl)phenyl)-3-(1,4-dimethyl-1H-benzo[d][1,2,3]triazol-5-yl)propanoic Acid, Formic Acid Salt], the EC50 fell in the range of 1000 to 10000 nM.
Still for that read-out and setting: as for `CCC1CN(Cc2cc([C@@H](c3ccc4c(nnn4C)c3C)C(C)C(=O)O)ccc2C)Cc2ccccc2O1` (stereo partly drawn) [Example 100, (3S)-3-(1,4-dimethyl-1H-benzo[d][1,2,3]triazol-5-yl)-3-(3-((2-ethyl-2,3-dihydrobenzo[f][1,4]oxazepin-4(5H)-yl)methyl)-4-methylphenyl)-2-methylpropanoic Acid], the figure is 10 to 100 nM.
On the same count and under the same terms, the value for `CCC1CN(Cc2cc([C@H](c3ccc4c(nnn4C)c3C)C(C)C(=O)O)ccc2C)Cc2ccccc2O1` (stereo partly drawn) [Example 102, (3R)-3-(1,4-dimethyl-1H-benzo[d][1,2,3]triazol-5-yl)-3-(3-((2-ethyl-2,3-dihydrobenzo[f][1,4]oxazepin-4(5H)-yl)methyl)-4-methylphenyl)-2-methylpropanoic Acid] was below 1 nM; that for `CC[C@@H]1CN(Cc2cc(C(c3ccc4c(c3)nnn4C)C(C)(C)C(=O)O)ccc2C)Cc2ccccc2O1` (stereo partly drawn) [Example 103, Ammonium 3-(3-(((R)-2-Ethyl-2,3-dihydrobenzo[f][1,4]oxazepin-4(5H)-yl)methyl)-4-methylphenyl)-2,2-dimethyl-3-(1-methyl-1H-benzo[d][1,2,3]triazol-5-yl)propanoate] was below 1 nM; that for `Cc1ccc(C(c2ccc3c(nnn3C)c2C)C(C)(C)C(=O)O)cc1CN1CCCc2ccccc2C1` (stereo not drawn) [Example 104, 3-(3-((4,5-Dihydro-1H-benzo[c]azepin-2(3H)-yl)methyl)-4-methylphenyl)-3-(1,4-dimethyl-1H-benzo[d][1,2,3]triazol-5-yl)-2,2-dimethylpropanoic acid] was 1 to 10 nM.
Still for that read-out and setting: as for `Cc1ccc(C(CC(=O)O)c2ccc3c(nnn3C)c2C)cc1CN1Cc2ccccc2CC(C)(C)C1` (stereo not drawn) [Example 105, Ammonium 3-(1,4-dimethyl-1H-benzo[d][1,2,3]triazol-5-yl)-3-(3-((4,4-dimethyl-4,5-dihydro-1H-benzo[c]azepin-2(3H)-yl)methyl)-4-methylphenyl)propanoate], the figure is 10 to 100 nM.
On to `CCC1Cc2ccccc2CN(Cc2cc(C(CC(=O)O)c3ccc4c(nnn4C)c3C)ccc2C)C1` (stereo not drawn) [Example 106, 3-(1,4-Dimethyl-1H-benzo[d][1,2,3]triazol-5-yl)-3-(3-((4-ethyl-4,5-dihydro-1H-benzo[c]azepin-2(3H)-yl)methyl)-4-methylphenyl)propanoic Acid], for which the EC50 fell in the range of 100 to 1000 nM.
Still for that read-out and setting: as for `Cc1cc2c(cn1)CN(Cc1cc(C(CC(=O)O)c3ccc4c(nnn4C)c3C)ccc1C)CC(C)(C)O2` (stereo not drawn) [Example 108, 3-(1,4-dimethyl-1H-benzo[d][1,2,3]triazol-5-yl)-3-(4-methyl-3-((2,2,8-trimethyl-2,3-dihydropyrido[3,4-f][1,4]oxazepin-4(5H)-yl)methyl)phenyl)propanoic Acid, Formic Acid Salt], the figure is 1000 to 10000 nM; as for `Cc1ccc([C@H](CC(=O)O)c2ccc3c(nnn3C)c2C)cc1CN1Cc2ccccc2OC(C)(C)C1` [Example 109, (S)-3-(1,4-dimethyl-1H-benzo[d][1,2,3]triazol-5-yl)-3-(3-((2,2-dimethyl-2,3-dihydrobenzo[f][1,4]oxazepin-4(5H)-yl)methyl)-4-methylphenyl)propanoic Acid, Formic Acid Salt], 100 to 1000 nM.
Same read-out and setting: as for `Cc1ccc([C@@H](CC(=O)O)c2ccc3c(nnn3C)c2C)cc1CN1Cc2ccccc2OC(C)(C)C1` [Example 110, (R)-3-(1,4-dimethyl-1H-benzo[d][1,2,3]triazol-5-yl)-3-(3-((2,2-dimethyl-2,3-dihydrobenzo[f][1,4]oxazepin-4(5H)-yl)methyl)-4-methylphenyl)propanoic Acid, Formic Acid Salt], the figure is below 1 nM; as for `CCN1CCN(Cc2cc(C(c3ccc4c(nnn4C)c3C)C(C)(C)C(=O)O)ccc2C)Cc2ccccc21` (stereo not drawn) [Example 111, 3-(1,4-dimethyl-1H-benzo[d][1,2,3]triazol-5-yl)-3-(3-((1-ethyl-2,3-dihydro-1H-benzo[e][1,4]diazepin-4(5H)-yl)methyl)-4-methylphenyl)-2,2-dimethylpropanoic Acid, Formic Acid Salt], 10 to 100 nM.
The same measure, in the same setting: the value for `CC[C@@H]1CN(Cc2cc(C(Cc3nnn[nH]3)c3ccc4c(nnn4C)c3C)ccc2C)Cc2ccccc2O1` (stereo partly drawn) [Example 112, (2R)-4-(5-(1-(1,4-dimethyl-1H-benzo[d][1,2,3]triazol-5-yl)-2-(1H-tetrazol-5-yl)ethyl)-2-methylbenzyl)-2-ethyl-2,3,4,5-tetrahydrobenzo[f][1,4]oxazepine, Formic Acid Salt] was 100 to 1000 nM; that for `CC[C@@H]1CN(Cc2cc(C(c3ccc4c(nnn4C)c3C)C(C)(C)C(=O)O)ccc2C)Cc2cccnc2O1` (stereo partly drawn) [Example 113, 3-(1,4-Dimethyl-1H-benzo[d][1,2,3]triazol-5-yl)-3-(3-(((R)-2-ethyl-2,3-dihydropyrido[3,2-f][1,4]oxazepin-4(5H)-yl)methyl)-4-methylphenyl)-2,2-dimethylpropanoic Acid] was 100 to 1000 nM.
